Data reported in patent publication US8828966B2, “Method for treatment of macular degeneration by modulating P2Y12 or P2X7 receptors” (priority 2006, dated 2014).

Tests used:
[1] = tested on: ARPE-19 cells; test: FACS analysis of autofluorescence (excited at 488 nm); assay type: cell-based, human; settings: for effect on autofluorescence enhanced by POS+CHQ: photoreceptor outer segments plus 10 μM chloroquine, 7 days
Source text: To maintain a balance between the synthesis, degradation, and subsequent recycling of cellular products there are a variety of autophagic responses, but all involve degradation of intracellular components via the lysosome. Typically, autophagy involves the formation of a membrane around a targeted region of the cell, separating the contents from the rest of the cytoplasm, and then the resultant vesicle fuses with a lysosome and the contents are subsequently degraded.

[2] = tested on: ARPE-19 cells; test: Lysosomal pH (pHL) with LysoSensor Yellow/Blue, high through-put screen; assay type: cell-based, human; settings: for effect on pHL of cells treated with tamoxifen: tamoxifen concentration not stated, A68930 and A77636 at 1 μM; for effect on pHL, agent alone: cells without other alkalinizing agent, NH4Cl 10 mM, BAF 200 nM, CHQ 20 μM, CFTR-172 10 μM, LDL 10 μg/ml, others not given
Protocol: Lysosensor Yellow/Blue co-localized with the Lysotracker Red dye in small vesicles, with a distribution consistent with lysosomal origin. Measurements of pHL were performed using a high throughput screening (HTS) protocol to maximize output and minimize variation using ARPE-19 cells in 96 well plates. […] Loading for 5 min. at 23° C. with 5 μM lysosensor, followed by 15 min. for internalization, produced stable and reproducible results.
The ratio was converted to pH by calibrating with KCl buffered to pH 4.0-6.0 in the presence of monensin and nigericin. Calibration indicated a baseline pH of 4.4 to 4.5, supporting lysosomal localization. […] NH4Cl decreased the ratios slightly at 380 nm. Nevertheless, absent the addition of the dye, none of these compounds, or any others, altered the fluorescent signal at 340 or 380 nm, showing a specificity of the measured change to pHL. […] This quantification is necessary to predict the potential effectiveness of acidifying drugs to restore lysosomal enzyme activity.
Extensive trials determined that the optimal response is obtained with 5 minute dye loading and 15 minute post-incubation. […] All reagents were from Sigma Chemical Corp. unless otherwise indicated.
In general, each condition below used 3-12 independent wells per plate, in 3-6 separate plates. As levels from individual plates varied, data was normalized to the mean pHL for control wells from each plate. Fluorescent ratios were converted to pH following calibration performed on each plate as described. Incubation with Lysosensor Yellow/Blue was kept constant and all measurements were performed 15 min after removal of dye from the bath to ensure continuity. Significance was determined with a one-way ANOVA and Tukey post test. Drugs were always tested on control cells to ensure modification of healthy RPE cells was minimal, and cells were not exposed to dye to make sure effects were specific. All background was subtracted from the fluorescence excited at 340 and 380 nm independently before calculation of the ratio.

[3] = tested on: ARPE-19 cells; test: Clearance (degradation) of calcein-labeled photoreceptor outer segments; assay type: cell-based, human
Protocol: Outer Segment Degradation: Bovine retinas were homogenized in 20% sucrose with 130 mM NaCl, 20 mM Tris-HCl, 10 mM glucose, 5 mM taurine and 2 mM MgC12 (pH 7.20). The homogenate was placed in ultracentrifuge tubes with 20%, 27%, 33%, 41%, 50% and 60% sucrose, respectively, and centrifuged for 70 minutes at 28,000 rpm on a SW28 rotor (4° C.). The supernatant was filtered, diluted in 0.02M Tris-HCl buffer (pH 7.2) and centrifuged at 13,000×g for 10 minutes (4° C.). The pellet was resuspended in […], 0.1 mM NaCl and 2.5% sucrose. Outer segments were loaded with 5 μM calcein-AM in PBS for 10 minutes, and spun 2× at 14,000 rpm to wash. Outer segments were then diluted 1:100 in growth medium and added to ARPE-19 cells in 96-well plates.
Isolated bovine outer segments loaded with calcein were supplied to ARPE-19 cells in 96-well plates for 2 hrs, washed 3× and maintained in control medium for an additional 3 hr (see Methods). […] Promising compounds were examined for their effects on cells treated with A2E, although the restoration of pHL is unlikely to remove A2E itself. However, other components of the outer segments are amendable to digestion by lysosomal enzymes at the appropriate pHL, and acidification could minimize the secondary effect of this accumulation.

[4] = tested on: primary cultures of bovine RPE cells; test: Lysosomal pH in primary bovine RPE cultures; assay type: cell-based
Protocol: Isolation of Bovine and Mouse RPE Cells: The bovine RPE-choroid and sclera were removed, incubated in 2.5% trypsin at 37° C. in 5% CO2 for 30 min, after which RPE sheets are dissected, washed and plated in 96-well plates with 10% serum medium. Mouse eyes were incubated in DMEM for 3 hrs at room temperature (RT), then in 0.1% trypsin and 0.4 mg/ml collagenase IV with 1 mM EDTA for 45 min at RT. RPE sheets were dissected out, washed, and incubated with 0.25% trypsin/0.02% EDTA in order to obtain a suspension of single cells, then grown as above.
HTS Measurement of pHL: ARPE-19 cells were grown in 96-well plates, rinsed 3× with isotonic solution (IS; prepared from NaCl 105 mM, KCl 5 mM, HEPES Acid 6 mM, Na HEPES 4 mM, NaHCO3 5 mM, mannitol 60 mM, glucose 5 mM, MgCl2 0.5 mM, CaCl2 1.3 mM) and incubated with 5 μM LysoSensor Yellow/Blue (Invitrogen Corp.) diluted with IS. Extensive trials determined that the optimal response is obtained with 5 minute dye loading and 15 minute post-incubation. Fluorescence was measured with a Fluoroskan 96-well Plate Reader (Thermo Electron Corp.). pHL was determined from the ratio of light excited at 340 nm vs 380 nm ([…] em). pHL was calibrated by exposing cells to 10 μM H^+/Na^+ ionophore monensin and 20 μM H^+/K^+ ionophore nigericin in 20 MES, 110 KCl and 20 NaCl at pH 3.0-7.0 for 15 min. All reagents were from Sigma Chemical Corp. unless otherwise indicated.

[5] = tested on: ABCA4−/− mice; test: Oral P2Y12 inhibitor in ABCA4-/- mice, lysosomal pH of RPE cells; assay type: in vivo, mouse; settings: 9-11 month old mice, 50 mg/kg orally, single dose, cells removed 4 hrs later
Protocol: In this example the selected P2Y12 inhibitor was clopidogrel (commercially available as Plavix), but the invention need not be so limited, and other P2Y12 inhibitors, such as AR-C66096, may be used. The clopidogrel was given orally at 50 mg/kg and the pH measured from RPE cells that were removed 4 hrs later.

`CCCSc1nc(N)c2ncn([C@@H]3O[C@H](COP(=O)([O-])OP(=O)([O-])C(F)(F)P(=O)([O-])[O-])[C@@H](O)[C@H]3O)c2n1.[Na+].[Na+].[Na+].[Na+]` [AR-C66096, 2-(Propylthio) adenosine-5′-O-(β,γ-difluoromethylene) triphosphate tetrasodium salt] was tested, and the “effect on autofluorescence enhanced by POS+CHQ” value [1] was “reduced this enhanced auto-fluorescence to near control levels” and the “effect on pHL elevation by P2Y12 agonist MeSADP” value ([2]; cells stimulated with MeSADP) was “inhibited these actions and restored lysosomal acidity”.
With `CCOc1ccc(Nc2ccc(/C(=C3C=C/C(=[N+](/CC)Cc4cccc(S(=O)(=O)[O-])c4)C=C/3C)c3ccc(N(CC)Cc4cccc(S(=O)(=O)[O-])c4)cc3C)cc2)cc1.[Na+]` [BBG] the “effect on autofluorescence enhanced by POS+CHQ” value [1] was “reduced this enhanced autofluorescence” and the “effect on pHL rise by P2X7 agonist BzATP” value ([2]; cells stimulated with BzATP) was “prevented this rise”.
In the case of `CCNC(=O)[C@H]1O[C@@H](n2cnc3c(N)nc(NCCc4ccc(CCC(=O)O)cc4)nc32)[C@H](O)[C@@H]1O` [CGS21680], the “effect on pHL of cells treated with 10 μM tamoxifen” value ([2]; 10 μM tamoxifen) is reported as “Over half of the increase triggered by 10 μM tamoxifen was reversed”, the “effect on pHL of cells treated with chloroquine” value ([2]; chloroquine (20 μM with CGS21680 100 nM)) is reported as “decreased the lysosomal alkalinization” and the “effect on pHL of cells treated with tamoxifen” value [2] is reported as “acidified the lysosomes”. The “degradative capacity (outer segment clearance) in chloroquine-treated cells” value ([3]; 100 nM CGS with 20 μM CHQ, 24 hrs) was “restored the degradative capacity”.
In the case of `CCNC(=O)[C@H]1O[C@@H](n2cnc3c(N)ncnc32)[C@H](O)[C@@H]1O` [NECA, 5′-(N-ethylcarboxamido) adenosine], the “effect on pHL of bovine cells treated with tamoxifen” value [4] is reported as “not quite significant” and the “effect on pHL of cells treated with tamoxifen” value [2] is reported as “reversed lysosomal alkalinization by tamoxifen”.
In the case of `Nc1ncnc2c1ncn2[C@@H]1O[C@H](CO)[C@@H](O)[C@H]1O` [adenosine], the “effect on pHL of bovine cells treated with tamoxifen” value [4] is reported as “acidified the lysosomes” and the “effect on pHL of cells treated with tamoxifen” value [2] is reported as “reduce the pHL”.
With `CCN(CC)CCCC(C)Nc1ccnc2cc(Cl)ccc12` (stereo not shown) [chloroquine] the “autofluorescence, agent alone” value ([1]; 10 μM for 7 days) was “increased autofluorescence” and the “effect on pHL, agent alone” value [2] was “pH was elevated”.
In the case of `COC(=O)[C@H](c1ccccc1Cl)N1CCc2sccc2C1` [clopidogrel], the “lysosomal pHL in RPE cells after single oral dose” value [5] is reported as “reduced”.
With `CC/C(=C(\c1ccccc1)c1ccc(OCCN(C)C)cc1)c1ccccc1` [tamoxifen] the “effect on pHL, agent alone” value [4] was “increased pHL”, the “time for elevated lysosomal pH to reach a plateau” value [2] was 10-15 minutes and the “effect on pHL, agent alone” value [2] was “raised pHL”. The “clearance of calcein-labeled outer segments, alkalinizing agent alone” value ([3]; after 24 hrs) was “slowed clearance of outer segments”.
